# Measured values: patent publication US11708562B2, “Differentiation of human embryonic stem cells” (Janssen Biotech, Inc., priority 2006, dated 2023)
# System: H9P33, H9P44 and H9P48 cells
# Experiment: Microarray analysis of definitive endoderm on MEFs vs MATRIGEL +/- Wnt-3A (Table VI)
# Conditions: DE treatment in low serum, on MATRIGEL
# Description: Controls for each group included cells plated on […]-coated dishes and cultured in MEF-conditioned medium or cells plated on MEFs and cultured in ES medium. All groups contained three biological replicates and each biological replicate was repeated on two separate gene chips.
# Sample preparation, hybridization, and image analysis were performed according to the Affymetrix Human Genome U133 Plus 2.0 Array. Following normalization and a log transformation, data analysis was performed using OmniViz® software (MA) and […] (VizXLabs, WA). Significant differences in gene expression between the samples were evaluated using analysis of variance and an F-test with adjusted P-value (Benjamini and Hochberg correction) of ≤0.05. Only genes with a present call in at least one group were included in the analysis.
substance,measurement,value
Activin A: a member of the TGFβ superfamily; growth factor (R&D Systems) used to differentiate human embryonic stem cells,"mean normalized intensity (log format), 6-phosphofructo-2-kinasefructose-2,6-biphosphatase 4",−0.2429
same,"mean normalized intensity (log format), Cluster Incl. AB028021: Homo sapiens HNF-3beta mRNA for hepatocyte nuclear factor-3 beta",−1.5339
same,"mean normalized intensity (log format), ESTs",−3.574
same,"mean normalized intensity (log format), ESTs, Highly similar to IHH_HUMAN INDIAN HEDGEHOG PROTEIN PRECURSOR (H. sapiens)",−0.654
same,"mean normalized intensity (log format), ESTs, Moderately similar to JE0284 Mm-1 cell derived transplantability-associated protein 1b (H. sapiens)",−2.377
same,"mean normalized intensity (log format), ESTs, Weakly similar to FCE2 MOUSE LOW AFFINITY IMMUNOGLOBULIN EPSILON FC RECEPTOR (M. musculus)",0.4942
same,"mean normalized intensity (log format), ESTs, Weakly similar to the 331st table hypothetical protein KIAA0555 (H. sapiens)",−1.574
same,"mean normalized intensity (log format), G protein-coupled receptor",1.507
same,"mean normalized intensity (log format), G protein-coupled receptor 49",0.2655
same,"mean normalized intensity (log format), Homo sapiens HNF-3beta mRNA for hepatocyte nuclear factor-3 beta",−2.718
same,"mean normalized intensity (log format), Homo sapiens KIAA0878 protein (KIAA0878), mRNA",2.0265
same,"mean normalized intensity (log format), Homo sapiens Kell blood group (KEL), mRNA",−2.205
same,"mean normalized intensity (log format), Homo sapiens MLL septin-like fusion (MSF), mRNA",−3.292
same,"mean normalized intensity (log format), Homo sapiens Mix-like homeobox protein 1 (MILD1) mRNA",−1.546
same,"mean normalized intensity (log format), Homo sapiens Rho GTPase activating protein 6 (ARHGAP6), transcript variant 2, mRNA",−1.104
same,"mean normalized intensity (log format), Homo sapiens TBX3-iso protein (TBX3-iso), mRNA",−2.346
same,"mean normalized intensity (log format), Homo sapiens angiopoietin 2 (ANGPT2), mRNA",−2.93
same,"mean normalized intensity (log format), Homo sapiens ankyrin-like with transmembrane domains 1 (ANKTM1), mRNA",−1.109
same,"mean normalized intensity (log format), Homo sapiens apolipoprotein A-I (APOA1), mRNA",−1.471
same,"mean normalized intensity (log format), Homo sapiens apolipoprotein A-II (APOA2), mRNA",−1.033
same,"mean normalized intensity (log format), Homo sapiens arylsulfatase E (chondrodysplasia punctata 1) (ARSE), mRNA",0.283
same,"mean normalized intensity (log format), Homo sapiens atrophin-1 interacting protein 1; activin receptor interacting protein 1 (KIAA0705), mRNA",−4.308
same,"mean normalized intensity (log format), Homo sapiens beta-site APP cleaving enzyme (BACE) mRNA",−2.0354
same,"mean normalized intensity (log format), Homo sapiens cDNA FLJ11550 fis, clone HEMBA1002970",−1.222
same,"mean normalized intensity (log format), Homo sapiens cDNA FLJ12993 fis, clone NT2RP3000197",0.1473
same,"mean normalized intensity (log format), Homo sapiens cDNA FLJ13221 fis, clone NT2RP4002075",0.3557
same,"mean normalized intensity (log format), Homo sapiens cardiac ventricular troponin C mRNA",−0.5497
same,"mean normalized intensity (log format), Homo sapiens cartilage linking protein 1 (CRTL1), mRNA",−1.315
same,"mean normalized intensity (log format), Homo sapiens cell adhesion molecule with homology to L1CAM (close homologue of L1) (CHL1), mRNA",−0.5412
same,"mean normalized intensity (log format), Homo sapiens chromosome 19, cosmid R31181",−0.2589
same,"mean normalized intensity (log format), Homo sapiens clone 23736 mRNA sequence",−0.04718
same,"mean normalized intensity (log format), Homo sapiens cryptic mRNA, complete cds",0.1049
same,"mean normalized intensity (log format), Homo sapiens cystatin S (CST4), mRNA",0.9245
same,"mean normalized intensity (log format), Homo sapiens cystatin SA (CST2), mRNA",−0.1022
same,"mean normalized intensity (log format), Homo sapiens cystatin SN (CST1), mRNA",0.07293
same,"mean normalized intensity (log format), Homo sapiens cytidine deaminase (CDA), mRNA",−3.891
same,"mean normalized intensity (log format), Homo sapiens dual specificity phosphatase 4 (DUSP4), mRNA",0.9539
same,"mean normalized intensity (log format), Homo sapiens fibroblast growth factor 8 (androgen-induced) (FGF8), mRNA",−4.328
same,"mean normalized intensity (log format), Homo sapiens fibroblast growth factor 17 (FGF17), mRNA",−0.8946
same,"mean normalized intensity (log format), Homo sapiens frizzled-related protein (FRZB), mRNA",0.565
same,"mean normalized intensity (log format), Homo sapiens gastrin-releasing peptide (GRP), mRNA",−2.741
same,"mean normalized intensity (log format), Homo sapiens glycophorin B (includes Ss blood group) (GYPB), mRNA",−0.9473
same,"mean normalized intensity (log format), Homo sapiens glycophorin E (GYPE), mRNA",−2.016
same,"mean normalized intensity (log format), Homo sapiens glycophorin Erik STA (GPErik) gene",−1.194
same,"mean normalized intensity (log format), Homo sapiens growth differentiation factor 3 (GDF3), mRNA",1.673
same,"mean normalized intensity (log format), Homo sapiens haptoglobin (HP), mRNA",−1.101
same,"mean normalized intensity (log format), Homo sapiens haptoglobin-related protein (HPR), mRNA",−2.6068
same,"mean normalized intensity (log format), Homo sapiens homeobox protein goosecoid mRNA, complete cds",−4.42
same,"mean normalized intensity (log format), Homo sapiens hypothetical protein FLJ10718 (FLJ10718), mRNA",2.605
same,"mean normalized intensity (log format), Homo sapiens hypothetical protein FLJ10970 (FLJ10970), mRNA",−0.432
same,"mean normalized intensity (log format), Homo sapiens hypothetical protein FLJ11316 (FLJ11316), mRNA",−0.9047
same,"mean normalized intensity (log format), Homo sapiens hypothetical protein FLJ22252 similar to SRY-box containing gene 17 (FLJ22252), mRNA",1.368
same,"mean normalized intensity (log format), Homo sapiens hypothetical protein FLJ23403 (FLJ23403), mRNA",−1.485
same,"mean normalized intensity (log format), Homo sapiens lumican (LUM), mRNA",−4.057
same,"mean normalized intensity (log format), Homo sapiens mRNA for GATA-6, complete cds",2.219
same,"mean normalized intensity (log format), Homo sapiens mRNA for KIAA1409 protein, partial cds",0.3683
same,"mean normalized intensity (log format), Homo sapiens mRNA; cDNA DKFZp434D0818 (from clone DKFZp434D0818)",−2.634
same,"mean normalized intensity (log format), Homo sapiens mRNA; cDNA DKFZp586J0624 (from clone DKFZp586J0624)",−0.8352
same,"mean normalized intensity (log format), Homo sapiens matrix metalloproteinase 14 (membrane-inserted) (MMP14), mRNA",−0.7235
same,"mean normalized intensity (log format), Homo sapiens phorbolin-like protein MDS019 (MDS019), mRNA",−1.119
same,"mean normalized intensity (log format), Homo sapiens presenilin stabilization factor b (PSF) mRNA",−0.8617
same,"mean normalized intensity (log format), Homo sapiens reserved (KCNK12), mRNA",−0.4687
same,"mean normalized intensity (log format), Homo sapiens retinoid X receptor, gamma (RXRG), mRNA",−2.375
same,"mean normalized intensity (log format), Homo sapiens sema domain, immunoglobulin domain (Ig), short basic domain, secreted, (semaphorin) 3E (SEMA3E), mRNA",−0.786
same,"mean normalized intensity (log format), Homo sapiens sema domain, seven thrombospondin repeats, (semaphorin) 5A (SEMA5A), mRNA",−1.533
same,"mean normalized intensity (log format), Homo sapiens solute carrier family 16 (monocarboxylic acid transporters), member 3 (SLC16A3), mRNA",0.7103
same,"mean normalized intensity (log format), Homo sapiens solute carrier family 21 (prostaglandin transporter), member 2 (SLC21A2), mRNA",0.7114
same,"mean normalized intensity (log format), Homo sapiens type VI collagen alpha 2 chain precursor (COL6A2) mRNA",1.7011
same,"mean normalized intensity (log format), Homo sapiens, alpha-1 (VI) collagen",−3.662
same,"mean normalized intensity (log format), Homo sapiens, clone MGC: 4655, mRNA",2.3772
same,"mean normalized intensity (log format), Human (clone 8B1) Br-cadherin mRNA",−2.179
